Assay results taken from ChEMBL document CHEMBL1201862, “PubChem BioAssay data set” (2004).
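Dose response: 5 concentrations. Exposure: 48 h. Format: 96-well plates. Endpoint: linear interpolation; highest concentration if not reached. GI50 = concentration required for 50% inhibition of growth.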 Active and inactive are the calls of the source. Cut-off read from the data, not from the text of the source: active = GI50 up to about 1.1 µM and inactive = higher.

What was measured:
Assay in all cases: DTP human tumour cell line panel, 48 h
ACHN = system: ACHN
K562 = system: K562
BT-549 = system: BT-549
A498 = system: A498
SF-295 = system: SF-295
MDA-MB-231 = system: MDA-MB-231
Malme-3M = system: Malme-3M
MCF7 = system: MCF7
HCC 2998 = system: HCC 2998
OVCAR-5 = system: OVCAR-5
Hs-578T = system: Hs-578T
OVCAR-4 = system: OVCAR-4
CCRF-CEM = system: CCRF-CEM
SN12C = system: SN12C
786-0 = system: 786-0
SK-MEL-28 = system: SK-MEL-28
PC-3 = system: PC-3
SNB-19 = system: SNB-19
T47D = system: T47D
HOP-92 = system: HOP-92

SMILES | GI50 (ACHN) | GI50 (K562) | GI50 (BT-549) | GI50 (A498) | GI50 (SF-295) | GI50 (MDA-MB-231) | GI50 (Malme-3M) | GI50 (MCF7) | GI50 (HCC 2998) | GI50 (OVCAR-5) | GI50 (Hs-578T) | GI50 (OVCAR-4) | GI50 (CCRF-CEM) | GI50 (SN12C) | GI50 (786-0) | GI50 (SK-MEL-28) | GI50 (PC-3) | GI50 (SNB-19) | GI50 (T47D) | GI50 (HOP-92)
COc1ccc2c(c1)c(=O)c1c(NCCCN(C)CCCNc3ccc4c(=O)n(CCN(C)C)c(=O)n5c6ccc(OC)cc6c(=O)c3c45)ccc3c(=O)n(CCN(C)C)c(=O)n2c31 | < 0.01 µM (active) | < 0.01 µM (active) | 0.259 µM (active) | 0.305 µM (active) | < 0.0169 µM (active) | 0.0614 µM (active) | 0.484 µM (active) | < 0.01 µM (active) | < 0.01 µM (active) | 0.29 µM (active) | 0.105 µM (active) | < 0.01 µM (active) | < 0.01 µM (active) | < 0.01 µM (active) | < 0.01 µM (active) | 0.415 µM (active) | < 0.0147 µM (active) | < 0.01 µM (active) | 0.619 µM (active) | 
CCOP(=O)(CN1CCNCCN(CP(=O)(OCC)OCC)CC1)OCC | > 100 µM (inactive) | > 100 µM (inactive) | > 100 µM (inactive) | > 100 µM (inactive) | > 100 µM (inactive) | > 100 µM (inactive) |  | > 100 µM (inactive) |  | > 100 µM (inactive) | > 100 µM (inactive) | > 100 µM (inactive) | > 31.6 µM (inactive) | > 100 µM (inactive) | > 100 µM (inactive) | > 100 µM (inactive) | > 100 µM (inactive) | > 100 µM (inactive) | > 100 µM (inactive) | > 100 µM (inactive)
[N-]=[N+]=NC[C@H]1OCO[C@H](CN=[N+]=[N-])[C@@H](OCCOCCCl)[C@@H]1OCCOCCCl |  | > 100 µM (inactive) | > 100 µM (inactive) |  | > 100 µM (inactive) | > 100 µM (inactive) | > 100 µM (inactive) | > 100 µM (inactive) | > 100 µM (inactive) |  | 80 µM (inactive) | > 100 µM (inactive) | > 100 µM (inactive) | > 100 µM (inactive) | > 100 µM (inactive) | > 100 µM (inactive) | > 100 µM (inactive) | > 100 µM (inactive) | > 100 µM (inactive) | 
CCOC(=O)c1c(C)n(C)c2c1cc(O)c1[nH]c3c(c12)CCCC3 | 27.4 µM (inactive) | 17.3 µM (inactive) | 45.7 µM (inactive) |  | 39.1 µM (inactive) | 17.1 µM (inactive) | 7.66 µM (inactive) | 2.71 µM (inactive) |  | 28.8 µM (inactive) | 32.7 µM (inactive) | 10.8 µM (inactive) | 20.3 µM (inactive) | 24.2 µM (inactive) | 15.6 µM (inactive) | 17.5 µM (inactive) | 18.3 µM (inactive) | 38.4 µM (inactive) | 18.2 µM (inactive) | 0.0185 µM (active)
COc1cc(NC(C)=O)ccc1C(=O)N/N=C/c1ccc(Cl)cc1Cl | 31.4 µM (inactive) | 50.2 µM (inactive) | > 100 µM (inactive) | 24.1 µM (inactive) | 57 µM (inactive) |  | 57.1 µM (inactive) | 4.42 µM (inactive) | 57.1 µM (inactive) | 46.3 µM (inactive) | 32.7 µM (inactive) | 23.2 µM (inactive) | 95.3 µM (inactive) | 22.4 µM (inactive) | 24.9 µM (inactive) | 59.4 µM (inactive) | 34.8 µM (inactive) | 42.8 µM (inactive) | 16.3 µM (inactive) | 35.4 µM (inactive)
CC(=O)C(=NNc1ccc(-n2c(C)nc3ccc(Br)cc3c2=O)cc1)C(C)=O | 98.4 µM (inactive) | > 100 µM (inactive) | > 100 µM (inactive) | > 100 µM (inactive) | 98.6 µM (inactive) | 37.2 µM (inactive) |  | > 100 µM (inactive) |  | > 100 µM (inactive) | 26.7 µM (inactive) |  | > 100 µM (inactive) | > 100 µM (inactive) | 33.7 µM (inactive) | > 100 µM (inactive) | 73.8 µM (inactive) | 45.6 µM (inactive) | > 100 µM (inactive) | 74.3 µM (inactive)
Cc1cc2[nH]c3[nH]c(=O)[nH]c(=O)c3c2cc1C | > 100 µM (inactive) |  | > 100 µM (inactive) | > 100 µM (inactive) | > 100 µM (inactive) | 24.4 µM (inactive) | > 100 µM (inactive) | > 100 µM (inactive) | > 100 µM (inactive) | > 100 µM (inactive) | 69 µM (inactive) |  | > 100 µM (inactive) | > 100 µM (inactive) | > 100 µM (inactive) |  |  | 89.3 µM (inactive) | > 100 µM (inactive) | > 100 µM (inactive)
CC(C)C(/C=C/c1ccc(Cl)c(Cl)c1)=N\NC(=O)N/N=C(/C=C/c1ccc(Cl)c(Cl)c1)C(C)C | > 100 µM (inactive) | > 100 µM (inactive) | > 100 µM (inactive) | > 100 µM (inactive) | > 100 µM (inactive) | > 100 µM (inactive) | > 100 µM (inactive) | > 100 µM (inactive) | > 100 µM (inactive) | > 100 µM (inactive) | > 100 µM (inactive) | > 100 µM (inactive) | > 100 µM (inactive) | > 100 µM (inactive) | > 100 µM (inactive) | > 100 µM (inactive) | > 100 µM (inactive) | > 100 µM (inactive) |  | > 100 µM (inactive)
